Measured values as given in US11985994B2, “Sweetener and flavor compositions, methods of making and methods of use thereof” (EPC Natural Products Co., Ltd., priority 2018, dated 2024).

Tests used:
Design in all cases: species or system human
[1] = Degree of kokumi of carrageenan solution (Example 187)
Experimental: Carrageenan was added to pure water to prepare several carrageenan solutions with a concentration gradient as standard solutions for judging the degree of kokumi of the carrageenan solutions.
A carrageenan solution was prepared at a concentration of 400 ppm. Different amounts of MRP, S-MRP or TS-MRP were added to the solution such that the concentration of MRP, S-MRP or TS-MRP in the solution was 50 ppm, 75 ppm, 100 ppm, 125 ppm or 150 ppm.
(§1) Method: For evaluation of the degree of kokumi, the sample solutions (described above) were tested by a panel of four people. The panel was asked to taste the sample solutions and compare them to standard solutions (described above) to judge which standard solution the degree of kokumi of sample solution is similar to. 1 trained taster tasted independently the samples first. The tester was allowed to re-taste, and then made judgment. Afterwards, another 3 tasters tasted and the judgments were discussed openly to find a suitable description in the case that more than 1 taster disagreed with the result, the tasting was repeated.

[2] = Degree of kokumi of gellan gum solution (Example 188)
Experimental: Gellan gum was added to pure water to prepare several gellan gum solutions with a concentration gradient as standard solutions for judging the degree of kokumi of the gellan gum solutions.
A gellan gum solution was prepared at a concentration of 400 ppm. Different amounts of MRP, S-MRP or TS-MRP were added to the solution such that the concentration of MRP, S-MRP or TS-MRP in the solution was 50 ppm, 75 ppm, 100 ppm, 125 ppm or 150 ppm.
as §1, with “judge to” for “judge”, “similar” for “similar to.”, “description. In” for “description in”

[3] = Degree of kokumi of Tamarind gum solution (Example 189)
Experimental: Tamarind gum was added to pure water to prepare several Tamarind gum solutions with a concentration gradient as standard solutions for judging the degree of kokumi of the Tamarind gum solutions.
A Tamarind gum solution was prepared at a concentration of 400 ppm. Different amounts of MRP, S-MRP or TS-MRP were added to the solution such that the concentration of MRP, S-MRP or TS-MRP in the solution was 50 ppm, 75 ppm, 100 ppm, 125 ppm or 150 ppm.
as §1, with “judge to” for “judge”, “similar” for “similar to.”, “description. In” for “description in”

With carrageenan the “concentration above which taste like starch paste is clearly felt” value [1] was “exceeds 1000 ppm”.

In the case of gellan gum, the “concentration above which taste like starch paste is clearly felt” value [2] was “exceeds 1400 ppm”.

With Tamarind gum the “concentration above which taste like starch paste is clearly felt” value [3] was “exceeds 1400 ppm”.
